Counter-ions that a name gives are not always drawn. Like-named read-outs stand apart in the source and are kept apart here.
What was measured:
[1] = tested on: THP-1 cells; assay: Measurement of IL-1β production, hTRF protocol (second alternative procedure), THP-1 cells; type: cell-based, human; details: read-out: NLRP3 hILIB EC50
Outline: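 Compounds, dilution series starting at a final 10 μM, were incubated 2 hours at 37° C with PMA-differentiated THP-1 cells (50 ng/ml overnight; 50,000 cells/well, 2% FBS RPMI). Released IL-1β quantified in supernatant by hTRF kit with 1:40 antibody dilution, 4° C overnight, 665/615 nm ratio.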

[2] = biological target: T1, TLR7 (Homo sapiens, UniProt Q9NYK1); assay: In vitro human TLR7 binding reporter assay (HEK-Blue, NF-kB/AP1-inducible SEAP); type: cell-based; details: read-out: TLR7 Agonist EC50
T1 construct: human HEK-Blue cells co-expressing a TLR7 or TLR8 gene
T1 sequence (Q9NYK1 27-1049): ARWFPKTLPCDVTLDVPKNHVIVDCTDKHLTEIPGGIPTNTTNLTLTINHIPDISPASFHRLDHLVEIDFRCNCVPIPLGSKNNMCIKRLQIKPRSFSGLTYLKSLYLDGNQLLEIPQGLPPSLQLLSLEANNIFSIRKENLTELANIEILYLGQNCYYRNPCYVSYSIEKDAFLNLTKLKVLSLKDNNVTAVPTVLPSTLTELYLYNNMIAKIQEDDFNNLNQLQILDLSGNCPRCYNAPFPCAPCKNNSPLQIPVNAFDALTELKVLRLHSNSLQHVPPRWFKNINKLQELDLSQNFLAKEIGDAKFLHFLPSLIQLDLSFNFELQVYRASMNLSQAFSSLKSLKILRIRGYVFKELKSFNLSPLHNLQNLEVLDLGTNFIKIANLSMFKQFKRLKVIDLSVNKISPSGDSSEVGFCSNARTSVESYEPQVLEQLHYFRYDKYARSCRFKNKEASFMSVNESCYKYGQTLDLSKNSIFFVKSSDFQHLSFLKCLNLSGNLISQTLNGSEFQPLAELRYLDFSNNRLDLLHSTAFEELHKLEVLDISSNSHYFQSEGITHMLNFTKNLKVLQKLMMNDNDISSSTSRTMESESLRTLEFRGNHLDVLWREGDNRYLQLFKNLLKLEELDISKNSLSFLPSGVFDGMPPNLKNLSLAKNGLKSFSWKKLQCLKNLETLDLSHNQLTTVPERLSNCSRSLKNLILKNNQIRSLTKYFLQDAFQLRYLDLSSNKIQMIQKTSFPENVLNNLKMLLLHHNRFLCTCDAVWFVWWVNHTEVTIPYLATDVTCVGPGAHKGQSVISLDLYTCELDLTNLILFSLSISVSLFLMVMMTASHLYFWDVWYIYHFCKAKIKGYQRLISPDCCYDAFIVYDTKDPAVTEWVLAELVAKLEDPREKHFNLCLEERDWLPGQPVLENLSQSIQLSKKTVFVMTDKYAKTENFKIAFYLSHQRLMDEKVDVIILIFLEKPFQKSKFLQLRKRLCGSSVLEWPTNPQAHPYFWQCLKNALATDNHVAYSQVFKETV
Outline: (§1)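 Cells are seeded and grown for 24 h. Compounds or DMSO are then added and incubated 18 h at 37 °C. Quanti-Blue is added, and SEAP is read after thirty minutes. EC50 values are normalized, with RLU from 50 μM reference standard setting 100% Ymax.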

[3] = biological target: T2, TLR8 (Homo sapiens, UniProt Q9NR97); assay: In vitro human TLR8 binding reporter assay (HEK-Blue, NF-kB/AP1-inducible SEAP); type: cell-based; details: read-out: TLR8 Agonist EC50
T2 construct: human HEK-Blue cells co-expressing a TLR7 or TLR8 gene
T2 sequence (Q9NR97 27-1041): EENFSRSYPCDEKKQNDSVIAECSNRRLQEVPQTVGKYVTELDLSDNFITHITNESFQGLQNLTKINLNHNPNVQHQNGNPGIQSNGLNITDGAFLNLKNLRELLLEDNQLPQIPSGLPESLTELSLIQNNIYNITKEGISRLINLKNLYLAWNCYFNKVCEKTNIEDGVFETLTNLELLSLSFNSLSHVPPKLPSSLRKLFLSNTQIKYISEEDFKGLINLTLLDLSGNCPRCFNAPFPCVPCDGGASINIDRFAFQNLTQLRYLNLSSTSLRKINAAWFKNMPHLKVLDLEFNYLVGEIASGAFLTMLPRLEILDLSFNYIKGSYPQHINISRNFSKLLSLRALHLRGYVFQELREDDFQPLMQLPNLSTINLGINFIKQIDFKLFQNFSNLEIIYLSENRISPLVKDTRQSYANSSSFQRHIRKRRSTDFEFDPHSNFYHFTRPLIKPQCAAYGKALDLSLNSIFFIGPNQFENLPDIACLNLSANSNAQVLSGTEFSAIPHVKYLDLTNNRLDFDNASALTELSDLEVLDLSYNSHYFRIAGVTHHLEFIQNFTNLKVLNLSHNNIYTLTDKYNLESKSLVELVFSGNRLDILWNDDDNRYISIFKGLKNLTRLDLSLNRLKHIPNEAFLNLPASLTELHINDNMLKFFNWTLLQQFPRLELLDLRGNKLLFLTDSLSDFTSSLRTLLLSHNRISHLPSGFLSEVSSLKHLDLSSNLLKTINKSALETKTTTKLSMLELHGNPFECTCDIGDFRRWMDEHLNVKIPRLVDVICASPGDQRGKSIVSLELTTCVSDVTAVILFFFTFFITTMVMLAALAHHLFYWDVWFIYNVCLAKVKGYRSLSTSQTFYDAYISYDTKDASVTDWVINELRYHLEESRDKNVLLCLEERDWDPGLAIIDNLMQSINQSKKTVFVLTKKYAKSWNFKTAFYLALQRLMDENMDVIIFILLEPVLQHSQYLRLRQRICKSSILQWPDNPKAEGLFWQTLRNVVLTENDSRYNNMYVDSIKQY
Outline: as §1

[4] = Homo sapiens, THP-1, IL-1β production, human
[5] = Homo sapiens, THP-1, IL-1β production, human cells

| SMILES | EC50 [1, 4] | EC50 ([2]; activity range class) | EC50 ([3]; activity range class) | EC50 [1, 5] | EC50 ([2]; activity range) | EC50 ([3]; activity range) | EC50 ([1]; IL-1β production, human cells) |
| --- | --- | --- | --- | --- | --- | --- | --- |
| COc1ccccc1C(=O)NCCn1cc2c(n1)c(N)nc1cc(-c3cc[nH]n3)ccc12 [Example 81] | 0.68 µM | > 100 µM | 20 to 100 µM | – | – | – | – |
| CC(Cn1cc2c(N)nc3cc(-c4ccn[nH]4)ccc3c2n1)NC(=O)c1cc(F)ccn1 (stereo not drawn) [Example 295] | 0.42 µM | > 100 µM | > 100 µM | – | – | – | – |
| Nc1nc2cc(-c3cc[nH]n3)ccc2c2cn(CCNCc3ccccc3)nc12 [Example 108] | 0.91 µM | 20 to 100 µM | 20 to 100 µM | – | – | – | – |
| Nc1nc2cc(-c3cc[nH]n3)ccc2c2cn(CCCN3CCOCC3)nc12 [Example 27] | 0.43 µM | > 100 µM | > 100 µM | – | – | – | – |
| CC(C)(CO)Cn1cc2c(N)nc3cc(-c4cc[nH]n4)ccc3c2n1 [Example 313] | 0.26 µM | > 100 µM | > 100 µM | – | – | – | – |
| COCC(=O)NC(C)Cn1cc2c(N)nc3cc(-c4ccn[nH]4)ccc3c2n1 (stereo not drawn) [Example 296] | 1.7 µM | > 100 µM | > 100 µM | – | – | – | – |
| CC(=O)N[C@@H](CO)Cn1cc2c(N)nc3cc(-c4cc[nH]n4)ccc3c2n1 [Example 292] | 0.89 µM | > 100 µM | > 100 µM | – | – | – | – |
| Nc1nc2cc(-n3cccn3)ccc2c2nn(CC3COCCN3)cc12 (stereo not drawn) [Example 433] | – | – | – | 4.58 µM | > 100 µM | > 100 µM | – |
| Nc1nc2cc(-c3cc[nH]n3)ccc2c2[nH]c(CCNS(=O)(=O)c3ccccc3)cc12 [Example 484] | – | – | – | 1.41 µM | > 100 µM | > 100 µM | – |
| CN1CCN(C(=O)Cn2cc3c(n2)c(N)nc2cc(-c4cc[nH]n4)ccc23)CC1 [Example 552] | – | – | – | 9.89 µM | > 100 µM | > 100 µM | – |
| Nc1nc2cc(-c3cc[nH]n3)ccc2c2cn(CCNC(=O)C3CCCCO3)nc12 (stereo not drawn) [Example 93] | 0.63 µM | > 100 µM | > 100 µM | – | – | – | – |
| Nc1nc2cc(-c3cc[nH]n3)ccc2c2cn(CC(=O)N[C@@H]3CCOC3)nc12 [Example 533] | – | – | – | 2.28 µM | > 100 µM | > 100 µM | – |
| CC(C)(C)c1cccc(C(=O)NCCc2cc3c(N)nc4cc(-c5cc[nH]n5)ccc4c3[nH]2)n1 [Example 499] | – | – | – | 1.34 µM | > 100 µM | > 100 µM | – |
| Cc1cc(C(=O)NCCn2cc3c(n2)c(N)nc2cc(-c4cc[nH]n4)ccc23)nn1C [Example 45] | 1.41 µM | > 100 µM | > 100 µM | – | – | – | – |
| CC(C)(CO)n1cc2c(N)nc3cc(-c4cc[nH]n4)ccc3c2n1 [Example 407, 2-(4-amino-7-(1H-pyrazol-3-yl)-2H-pyrazolo[4,3-c]quinolin-2-yl)-2-methylpropan-1-ol, TFA] | – | – | – | – | > 100 µM | > 100 µM | 0.5 µM |
| Nc1nc2cc(-c3cc[nH]n3)ccc2c2nn(CC(F)F)cc12 [Example 224] | 0.14 µM | > 100 µM | > 100 µM | – | – | – | – |
| CC(C)(F)C(=O)NCCn1nc2c(N)nc3cc(-c4ccn[nH]4)ccc3c2n1 [Example 157, N-{2-[4-amino-7-(1H-pyrazol-5-yl)-2H-[1,2,3]triazolo[4,5-c]quinolin-2-yl]ethyl}-2-fluoro-2-methylpropanamide] | 5.17 µM | > 100 µM | > 100 µM | – | – | – | – |

| SMILES | EC50 [1, 4] | EC50 ([2]; activity range class) | EC50 ([3]; activity range class) | EC50 [1, 5] | EC50 ([2]; activity range) | EC50 ([3]; activity range) | EC50 ([1]; IL-1β production, human cells) |
| --- | --- | --- | --- | --- | --- | --- | --- |
| CNCCn1cc2c(N)nc3cc(-c4ccn[nH]4)ccc3c2n1 [Example 277] | 2.33 µM | > 100 µM | > 100 µM | – | – | – | – |
| Nc1nc2cc(-c3cc[nH]n3)ccc2c2cn(CCNC(=O)c3ccc(Cl)cn3)nc12 [Example 72] | 0.14 µM | 20 to 100 µM | 20 to 100 µM | – | – | – | – |
| Nc1nc2cc(-c3cc[nH]n3)ccc2c2nn(CCC(=O)NCCO)cc12 [Example 511] | – | – | – | 4.62 µM | > 100 µM | > 100 µM | – |
| CC(Cn1cc2c(N)nc3cc(-c4ccn[nH]4)ccc3c2n1)NC(=O)c1ccc(F)cn1 (stereo not drawn) [Example 294] | 0.43 µM | > 100 µM | > 100 µM | – | – | – | – |
| Nc1nc2cc(-c3cc[nH]n3)ccc2c2cn(CCNC(=O)c3cccc(Cl)n3)nc12 [Example 60] | 0.27 µM | > 100 µM | > 100 µM | – | – | – | – |
| Cc1nc(C(=O)NCCn2cc3c(n2)c(N)nc2cc(-c4cc[nH]n4)ccc23)c(C(F)(F)F)o1 [Example 71] | 0.81 µM | 20 to 100 µM | 20 to 100 µM | – | – | – | – |
| CC(C(=O)N1CC(O)C1)n1cc2c(N)nc3cc(-c4ccn[nH]4)ccc3c2n1 (stereo not drawn) [Example 579] | – | – | – | 4.47 µM | > 100 µM | > 100 µM | – |
| CC(C)(Cn1cc2c(N)nc3cc(-c4ccn[nH]4)ccc3c2n1)C(=O)NCc1cccnc1 [Example 601] | – | – | – | 32.4 µM | > 100 µM | > 100 µM | – |
| Nc1nc2cc(-c3cc[nH]n3)ccc2c2[nH]c(CN[C@H]3CC[C@@H](CO)C3)cc12 [Example 478] | – | – | – | 0.35 µM | > 100 µM | > 100 µM | – |
| Nc1nc2cc(-c3cc[nH]n3)ccc2c2cn(CCNC(=O)c3ccc(C(F)(F)F)cn3)nc12 [Example 62] | 0.28 µM | 20 to 100 µM | > 100 µM | – | – | – | – |
| CC(C)(C)OC(=O)NCCn1cc2c(n1)c(N)nc1cc(-c3cc[nH]n3)ccc12 [Example 118, tert-butyl N-{2-[4-amino-7-(1H-pyrazol-3-yl)-2H-pyrazolo[3,4-c]quinolin-2-yl]ethyl}carbamate] | 0.86 µM | > 100 µM | > 100 µM | – | – | – | – |
| Nc1nc2cc(-c3cc[nH]n3)ccc2c2cn(CCNC(=O)c3ccccn3)nc12 [Example 39] | 0.25 µM | > 100 µM | 20 to 100 µM | – | – | – | – |
| CC(C)(F)C(=O)NCCn1cc2c(N)nc3cc(-c4cc[nH]n4)ccc3c2n1 [Example 203] | 3.49 µM | > 100 µM | > 100 µM | – | – | – | – |
| Nc1nc2cc(-c3cc[nH]n3)ccc2c2[nH]c(CNCCO)cc12 [Example 494] | – | – | – | 1.89 µM | > 100 µM | > 100 µM | – |
| COCCCCn1ncc2c(N)nc3cc(-c4cc[nH]n4)ccc3c21 [Example 219] | 0.3 µM | > 100 µM | > 100 µM | – | – | – | – |
| CC(CC(=O)N(C)C)n1cc2c(N)nc3cc(-c4cc[nH]n4)ccc3c2n1 (stereo not drawn) [Example 617] | – | – | – | 3.88 µM | > 100 µM | > 100 µM | – |
| Nc1nc2cc(-c3cc[nH]n3)ccc2c2cn(CC(=O)NC3CCC3)nc12 [Example 548] | – | – | – | 0.78 µM | > 100 µM | > 100 µM | – |

— patent US12037344B2, “NLRP3 modulators” (INNATE TUMOR IMMUNITY, INC., priority 2018, dated 2024)
